In patent publication US20240287076A1, “COMPOUNDS FOR TARGETING DEGRADATION OF BRUTON'S TYROSINE KINASE” (BIOGEN MA INC., priority 2021, published 2024):

Target: T1, BTK (Homo sapiens, UniProt Q06187)
T1 construct: The GM01501.3 cell line endogenously expresses BTK with a HiBiT fusion tag via CRISPR knock-in at its C-terminal region; endogenous in cells; host or cells: GM01501.3 (GM01501 cells engineered by CRISPR knock-in of HiBiT at the BTK locus)
Assay: BTK degradation assay using the HiBiT Method (Nano-Glo HiBiT Lytic Assay, GM01501.3 cells)
Assay type: cell-based
Conditions: HiBiT Degradation on GM01501.3 BTK @ 6 hours
Outline: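 Degradation read-out: HiBiT luminescence after lytic reagent addition, giving DC50. Compounds dosed from 10 μM in 11 half-log steps (duplicate) onto GM01501.3 cells, whose endogenous BTK carries a C-terminal HiBiT knock-in tag; 6 h exposure, 37 °C, 5% CO2.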

T1 sequence (Q06187 whole entry, the tested form may be a part): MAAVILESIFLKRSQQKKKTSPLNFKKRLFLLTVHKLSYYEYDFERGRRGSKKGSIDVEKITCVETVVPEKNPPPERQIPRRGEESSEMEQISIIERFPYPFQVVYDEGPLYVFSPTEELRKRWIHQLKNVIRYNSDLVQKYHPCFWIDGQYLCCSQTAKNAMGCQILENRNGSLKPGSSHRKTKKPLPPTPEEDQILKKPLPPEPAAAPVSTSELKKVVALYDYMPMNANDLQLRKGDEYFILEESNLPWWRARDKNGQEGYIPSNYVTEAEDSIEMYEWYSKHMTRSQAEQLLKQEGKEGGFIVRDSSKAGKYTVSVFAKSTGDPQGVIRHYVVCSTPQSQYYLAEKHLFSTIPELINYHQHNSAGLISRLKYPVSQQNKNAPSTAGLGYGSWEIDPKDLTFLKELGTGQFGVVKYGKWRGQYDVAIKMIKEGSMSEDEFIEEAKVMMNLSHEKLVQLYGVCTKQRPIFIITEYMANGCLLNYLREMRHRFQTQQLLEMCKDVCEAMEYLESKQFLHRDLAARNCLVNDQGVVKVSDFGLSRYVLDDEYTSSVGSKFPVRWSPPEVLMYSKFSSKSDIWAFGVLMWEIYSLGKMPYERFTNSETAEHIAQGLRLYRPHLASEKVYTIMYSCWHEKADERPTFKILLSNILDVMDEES

Row | DC50 [nM] | Compound
1 | < 100 | Cc1cc(-c2ncnn3cc(CCN4CCC(c5ccc(OC6CCC(=O)NC6=O)cn5)CC4)cc23)ccc1CNC(=O)c1noc(C(C)(C)C)n1 (stereo not drawn) [Example 264, 5-(tert-butyl)-N-(4-(6-(2-(4-(5-((2,6-dioxopiperidin-3-yl)oxy)pyridin-2-yl)piperidin-1-yl)ethyl)pyrrolo[2,1-f][1,2,4]triazin-4-yl)-2-methylbenzyl)-1,2,4-oxadiazole-3-carboxamide]
2 | < 100 | Cc1cc(-c2ncnn3cc(-c4ccc(C(=O)NC5CCc6cc(NC7CCC(=O)NC7=O)ccc6C5)cc4)cc23)ccc1CNC(=O)c1noc(C(C)(C)C)n1 (stereo not drawn) [Example 197, 5-(tert-butyl)-N-(4-(6-(4-((6-((2,6-dioxopiperidin-3-yl)amino)-1,2,3,4-tetrahydronaphthalen-2-yl)carbamoyl)phenyl)pyrrolo[2,1-f][1,2,4]triazin-4-yl)-2-methylbenzyl)-1,2,4-oxadiazole-3-carboxamide]
3 | < 100 | CC(C)(C)c1nc(C(=O)NCc2ccc(-c3ncnn4cc(-c5ccc(CN6CCC(c7ccc(NC8CCC(=O)NC8=O)nc7)CC6)cc5)cc34)cc2F)no1 (stereo not drawn) [Example 32, 5-tert-butyl-N-[[4-[6-[4-[[4-[6-[(2,6-dioxo-3-piperidyl)amino]-3-pyridyl]-1-piperidyl]methyl]phenyl]pyrrolo[2,1-f][1,2,4]triazin-4-yl]-2-fluoro-phenyl]methyl]-1,2,4-oxadiazole-3-carboxamide]
4 | < 100 | Cc1cc(-c2ncnn3cc(CCN4CCC(c5ccc6c(C7CCC(=O)NC7=O)nn(C)c6c5)CC4)cc23)ccc1CNC(=O)c1ccn(C(C)(C)C)n1 (stereo not drawn) [Example 273, 1-(tert-butyl)-N-(4-(6-(2-(4-(3-(2,6-dioxopiperidin-3-yl)-1-methyl-1H-indazol-6-yl)piperidin-1-yl)ethyl)pyrrolo[2,1-f][1,2,4]triazin-4-yl)-2-methylbenzyl)-1H-pyrazole-3-carboxamide]
5 | < 100 | Cc1cc(-c2ncnn3cc(CCN4CCC(c5ccc(NC6CCC(=O)NC6=O)cc5)C(F)(F)C4)cc23)ccc1CNC(=O)c1noc(C(C)(C)C)n1 (stereo not drawn) [Example 275, 5-(tert-butyl)-N-(4-(6-(2-(4-(4-((2,6-dioxopiperidin-3-yl)amino)phenyl)-3,3-difluoropiperidin-1-yl)ethyl)pyrrolo[2,1-f][1,2,4]triazin-4-yl)-2-methylbenzyl)-1,2,4-oxadiazole-3-carboxamide]
6 | < 100 | Cc1cc(-c2ncnn3cc(-c4ccc(C(=O)NCCc5ccc(NC6CCC(=O)NC6=O)cc5)cc4)cc23)ccc1CNC(=O)c1noc(C(C)(C)C)n1 (stereo not drawn) [Example 198, 5-(tert-butyl)-N-(4-(6-(4-((4-((2,6-dioxopiperidin-3-yl)amino)phenethyl)carbamoyl)phenyl)pyrrolo[2,1-f] [1,2,4]triazin-4-yl)-2-methylbenzyl)-1,2,4-oxadiazole-3-carboxamide]
7 | < 100 | Cc1cc(-c2ncnn3cc(-c4ccc(CN5CCC(c6ccc(NC7CCC(=O)NC7=O)cc6)CC5)cc4)cc23)ccc1CNC(=O)c1cccnc1 (stereo not drawn) [Example 90, N-[[4-[6-[4-[[4-[4-[(2,6-dioxo-3-piperidyl)amino]phenyl]-1-piperidyl]methyl]phenyl]pyrrolo[2,1-f][1,2,4]triazin-4-yl]-2-methyl-phenyl]methyl]pyridine-3-carboxamide]
8 | < 100 | Cc1cc(-c2ncnn3cc(N4CCN(C(=O)CCCCCCCCNC(=O)c5ccc(OC6CCC(=O)NC6=O)cc5)CC4)cc23)ccc1CNC(=O)c1noc(C(C)(C)C)n1 (stereo not drawn) [Example 180, 5-(tert-butyl)-N-(4-(6-(4-(9-(4-((2,6-dioxopiperidin-3-yl)oxy)benzamido)nonanoyl)piperazin-1-yl)pyrrolo[2,1-f][1,2,4]triazin-4-yl)-2-methylbenzyl)-1,2,4-oxadiazole-3-carboxamide]
9 | < 100 | Cc1cc(-c2ncnn3cc(CCN4CCC(c5ccn6c(N7CCC(=O)NC7=O)cnc6c5)CC4)cc23)ccc1CNC(=O)c1noc(C(C)(C)C)n1 [Example 269, 5-(tert-butyl)-N-(4-(6-(2-(4-(3-(2,4-dioxotetrahydropyrimidin-1(2H)-yl)imidazo[1,2-a]pyridin-7-yl)piperidin-1-yl)ethyl)pyrrolo[2,1-f][1,2,4]triazin-4-yl)-2-methylbenzyl)-1,2,4-oxadiazole-3-carboxamide]
10 | 100 to 500 | Cc1cc(-c2ccnc3sc(-c4ccc(CN5CCC(c6ccc(NC7CCC(=O)NC7=O)cc6)CC5)cc4)cc23)ccc1CNC(=O)c1noc(C(C)(C)C)n1 (stereo not drawn) [Example 157, 5-tert-butyl-N-[[4-[2-[4-[[4-[4-[(2,6-dioxo-3-piperidyl)amino]phenyl]-1-piperidyl]methyl]phenyl]thieno[2,3-b]pyridin-4-yl]-2-methyl-phenyl]methyl]-1,2,4-oxadiazole-3-carboxamide]
11 | < 100 | Cc1cc(-c2ccnc3cn(CCCCN4CCC(c5ccc(NC6CCC(=O)NC6=O)cc5)CC4)nc23)ccc1CNC(=O)c1noc(C(C)(C)C)n1 (stereo not drawn) [Example 224, 5-tert-butyl-N-[[4-[2-[4-[4-[4-[(2,6-dioxo-3-piperidyl)amino]phenyl]-1-piperidyl]butyl]pyrazolo[4,3-b]pyridin-7-yl]-2-methyl-phenyl]methyl]-1,2,4-oxadiazole-3-carboxamide]
12 | < 100 | Cc1cc(-c2ncnn3cc(-c4ccc(CN5CCC(c6ccc(C7CCC(=O)NC7=O)cc6F)CC5)cc4)cc23)ccc1CNC(=O)c1noc(C(C)(C)C)n1 (stereo not drawn) [Example 9, 5-tert-butyl-N-[[4-[6-[4-[[4-[4-(2,6-dioxo-3-piperidyl)-2-fluoro-phenyl]-1-piperidyl]methyl]phenyl]pyrrolo[2,1-f][1,2,4]triazin-4-yl]-2-methyl-phenyl]methyl]-1,2,4-oxadiazole-3-carboxamide]
13 | < 100 | CC(C)(C)c1nc(C(=O)NCc2ccc(-c3ncnn4cc(CCN5CCC(c6ccc(NC7CCC(=O)NC7=O)cn6)CC5)cc34)cc2F)no1 (stereo not drawn) [Example 122, 5-tert-butyl-N-[[4-[6-[2-[4-[5-[(2,6-dioxo-3-piperidyl)amino]-2-pyridyl]-1-piperidyl]ethyl]pyrrolo[2,1-f][1,2,4]triazin-4-yl]-2-fluoro-phenyl]methyl]-1,2,4-oxadiazole-3-carboxamide]
14 | < 100 | Cc1cc(-c2ncnn3cc(CCN4CC[C@@H](c5ccc6c(N7CCC(=O)NC7=O)nn(C)c6c5)C4)cc23)ccc1CNC(=O)c1noc(C(C)(C)C)n1 (single isomer, unassigned) [Example 266]
15 | < 100 | Cc1cc(-c2ncnn3cc(OC[C@@H](F)CN4CCN(c5ccc(NC6CCC(=O)NC6=O)cn5)CC4)cc23)ccc1CNC(=O)c1noc(C(C)(C)C)n1 (stereo partly drawn) [Example 296, 5-(tert-butyl)-N-(4-(6-((2S)-3-(4-(5-((2,6-dioxopiperidin-3-yl)amino)pyridin-2-yl)piperazin-1-yl)-2-fluoropropoxy)pyrrolo[2,1-f][1,2,4]triazin-4-yl)-2-methylbenzyl)-1,2,4-oxadiazole-3-carboxamide]
16 | < 100 | Cc1cc(-c2ncnn3cc(-c4ccc(CN5CCC(c6ccc(NC7CCC(=O)NC7=O)cc6)CC5)cc4)cc23)ccc1CNC(=O)c1cc2c(s1)CCCC2 (stereo not drawn) [Example 71, N— [[4-[6-[4-[[4-[4-[(2,6-dioxo-3-piperidyl)amino]phenyl]-1-piperidyl]methyl]phenyl]pyrrolo[2,1-f][1,2,4]triazin-4-yl]-2-methyl-phenyl]methyl]-4,5,6,7-tetrahydrobenzothiophene-2-carboxamide]
17 | 100 to 500 | Cc1cc(-c2ncnn3cc(N4CCN(C(=O)C5CCN(C(=O)c6ccc(OC7CCC(=O)NC7=O)cc6)C5)CC4)cc23)ccc1CNC(=O)c1noc(C(C)(C)C)n1 (stereo not drawn) [Example 172, 5-(tert-butyl)-N-(4-(6-(4-(1-(4-((2,6-dioxopiperidin-3-yl)oxy)benzoyl)pyrrolidine-3-carbonyl)piperazin-1-yl)pyrrolo[2,1-f][1,2,4]triazin-4-yl)-2-methylbenzyl)-1,2,4-oxadiazole-3-carboxamide]
18 | < 100 | Cc1cc(-c2ncnn3cc(-c4ccc(CN5CCC(c6ccc(NC7CCC(=O)NC7=O)cc6)CC5)cn4)cc23)ccc1CNC(=O)c1noc(C(C)(C)C)n1 (stereo not drawn) [Example 241, 5-(tert-butyl)-N-(4-(6-(5-((4-(4-((2,6-dioxopiperidin-3-yl)amino)phenyl)piperidin-1-yl)methyl)pyridin-2-yl)pyrrolo[2,1-f][1,2,4]triazin-4-yl)-2-methylbenzyl)-1,2,4-oxadiazole-3-carboxamide]
19 | < 100 | CC(C)(C)c1nc(C(=O)NCc2ccc(-c3ncnn4cc(-c5ccc(CN6CCCCC6Cc6ccc(OC7CCC(=O)NC7=O)cc6)cn5)cc34)cc2F)no1 (stereo not drawn) [Example 233, 5-(tert-butyl)-N-(4-(6-(5-((2-(4-((2,6-dioxopiperidin-3-yl)oxy)benzyl)piperidin-1-yl)methyl)pyridin-2-yl)pyrrolo [2,1-f][1,2,4]triazin-4-yl)-2-fluorobenzyl)-1,2,4-oxadiazole-3-carboxamide]

Row | Compound | DC50 [nM]
20 | CC(C)(C)OC1CN(C(=O)NCc2ccc(-c3ncnn4cc(-c5ccc(CN6CCC(c7ccc(NC8CCC(=O)NC8=O)cn7)CC6)cc5)cc34)cc2F)C1 (stereo not drawn) [Example 100, 3-tert-butoxy-N-[[4-[6-[4-[[4-[5-[(2,6-dioxo-3-piperidyl)amino]-2-pyridyl]-1-piperidyl]methyl]phenyl]pyrrolo[2,1-f][1,2,4]triazin-4-yl]-2-fluoro-phenyl]methyl]azetidine-1-carboxamide] | < 100
21 | Cc1cc(-c2ncnn3cc(-c4ccc(OCCCCCCCCN5CCC(c6ccc(NC7CCC(=O)NC7=O)cc6)CC5)cc4)cc23)ccc1CNC(=O)c1noc(C(C)(C)C)n1 (stereo not drawn) [Example 115, -tert-butyl-N-[[4-[6-[4-[8-[4-[4-[(2,6-dioxo-3-piperidyl)amino]phenyl]-1-piperidyl]octoxy]phenyl]pyrrolo[2,1-f][1,2,4]triazin-4-yl]-2-methyl-phenyl]methyl]-1,2,4-oxadiazole-3-carboxamide] | < 100
